Measurements reported in article PMC7822874, “Chemoprotective antimalarials identified through quantitative high-throughput screening of Plasmodium blood and liver stage parasites” (Scientific Reports, 2021).
Read-outs that look alike come from different tables or passages of the source.

Tested on: Plasmodium falciparum Dd2 asexual blood stage parasites
Experiment: microbe, parasite or virus in culture
Parameters: species or system Plasmodium falciparum Dd2 in human erythrocytes; single determination (one 11-point concentration-response curve)
Conditions: Plasmodium falciparum, DD2, Erythrocyte, 72 h

Compound | AC50 (read-out: AC50) [µM] | AC50 [µM]
COc1ccc(O)c(C(=O)c2cnc3c(c2)c(-c2ccc(F)cc2)c(C#N)c(=O)n3C)c1 [MLS001003111-01] | 5.96 | –
COc1ccc(-n2nc3ccc(NC(=O)c4ccc(-c5cc(Cl)ccc5Cl)o4)cc3n2)cc1 [NCGC00098498-01] | 4.22 | –
O=C(NCc1ccco1)c1ccc2c(c1)N(Cc1c(F)cccc1Cl)C(=O)c1ccccc1S2 [NCGC00108150-01] | 13.3 | –
Cc1cccc(Cn2nnc3c(O)nc(C4CCCN(C(=O)c5ccc(C(C)(C)C)cc5)C4)nc32)c1 (stereo not drawn) [NCGC00116091-01] | 2.66 | –
CCOC(=O)C1(c2ccccc2)CCN(CCC(C#N)(c2ccccc2)c2ccccc2)CC1 [NCGC00167963-01] | 5.31 | –
CCN(CC)CCC(c1ccc(N(C)C)cc1)c1c(O)cc(OC)cc1OC (stereo not drawn) [MLS000879508-01] | 3.35 | –
CC(=O)NCCNC[C@@H]1C=C(C)[C@H](Cc2nnc(-c3ccccc3)o2)C[C@H]1C(C)C [NCGC00395892-01] | 17.2 | –
Oc1cc2c(cc1CN1CCN(c3ccccc3)CC1)CCC2 [MLS000058156-01] | – | 3.35
OCC[n+]1ccc(/C=C/c2c[nH]c3ccccc23)cc1 [MLS000585200-01] | 2.99 | –
O=C(Nc1sc2c(c1C(=O)NCc1ccco1)CCCC2)c1cc(=O)c2ccccc2o1 [NCGC00115806-01] | 10.6 | –
COc1cccc(CN2CCc3c(cc(C(=O)NCc4ccccn4)n3C)C2)c1 [NCGC00430584-01] | 15 | –
C=CCOC(=O)C1=C[C@@H](c2ccc(C(F)(F)F)cc2)[C@H](CCCO)[C@@H](OCC)O1 [MLS000766375-01] | 7.5 | –
COc1ccc(-c2cc(C(=O)NCc3c(C)cc(C)[nH]c3=O)c3c(c2)N(C)CCO3)cn1 [NCGC00417013-01] | 19.3 | –
COc1ccc(-n2nc(C(=O)NCCc3ccc(OC)c(OC)c3)c3c4ccccc4n(C)c3c2=O)cc1Cl [NCGC00108876-01] | 2.99 | –
CCCCOc1ccc(NC2=NC(N)=NC3(CCCCC3)N2)cc1 [MLS000109806-01] | 8.41 | –
Cc1ccc(O)c(CN2CCCC(c3nc(CC(C)C)no3)C2)c1 (stereo not drawn) [NCGC00443337-01] | 9.44 | –
O=C(NCc1ccccc1)c1ccccc1OC1CN(Cc2ccc(O)c(F)c2)C1 [NCGC00458090-01] | 15 | –
COc1cc2nc(NCCC(C)C)n3nc(-c4ccccc4)nc3c2cc1OC [NCGC00112851-01] | 0.422 | –
CCn1c(=O)c(=O)n(CC)c2cc(N3CCCCC3)c(NC(=O)c3ccc(Cl)cc3)cc21 [NCGC00107440-01] | 7.5 | –
O=C(C[n+]1c2n(c3ccccc31)CC(O)CS2)c1ccccc1 (stereo not drawn) [MLS000687555-01] | 10.6 | –
O=C(Nc1nccs1)C1c2ccccc2C(=O)N(C2CCCC2)C12CCCC2 (stereo not drawn) [NCGC00423502-01] | 4.22 | –

Compound | AC50 (read-out: AC50) [µM] | AC50 [µM]
O=C1NCc2ccccc2CC12CCCN(CC1=CCCCC1)C2 (stereo not drawn) [NCGC00377566-01] | 3.31 | –
COc1ccc(C2=C(C(C)=O)Sc3nnc(-c4ccc(Cl)cc4)n3N2C(C)=O)cc1OC [NCGC00137262-01] | 3.76 | –
CCOc1ccccc1CN1CCC2(CCN(CCC(C)C)CC2)Oc2ccccc21 [NCGC00478188-01] | 3.35 | –
CCOC(=O)c1c(CN2CCOCC2)n(-c2ccccc2)c2cc(Br)c(O)cc12 [MLS000530556-01] | 2.99 | –
C#C[C@H]1C[N@@]2CC[C@H]1C[C@@H]2CNCc1cccc(Cl)c1 [NCGC00395254-01] | 4.85 | –
N=c1c2c(n(Cc3ccc(F)cc3)c3c1CCC3)CCC2 [MLS000107591-01] | 3.35 | –
O=C(CSc1nc(-c2ccccc2)no1)N1CCN(c2ccc(F)cc2)CC1 [NCGC00127880-01] | 4.22 | –
CN(C)Cc1cn2c(=O)n(C)cc(-c3cccc(C(F)(F)F)c3)c2n1 [NCGC00416418-01] | 21.7 | –
CC(=O)C1=C(c2ccc(Br)cc2)N(C(C)=O)n2c(nnc2C2CCCCC2)S1 [NCGC00137196-01] | 2.99 | –
CCOc1ccc(CCNC(=O)c2ccc3c(c2)N(Cc2ccccc2F)C(=O)c2ccccc2[S+]3[O-])cc1OCC (stereo not drawn) [NCGC00109590-01] | 10.6 | –
COc1ccccc1-c1cc(C(=O)N2CCN(S(=O)(=O)c3ccc(C)cc3)CC2)[nH]n1 [MLS000924750-01] | 7.5 | –
O=C1c2cc(N3CCOCC3)nc(-c3ccccc3)c2CN1Cc1ccccc1 [NCGC00419273-01] | 21.7 | –
CC(C)Nc1nccc(C2(c3ccccc3Cl)CCNCC2)n1 [NCGC00440810-01] | 9.44 | –
COc1ccc(C2Nc3ccccc3C(=O)N2Cc2ccccc2)cc1COc1ccc(Cl)cc1Cl (stereo not drawn) [NCGC00165212-01] | 8.41 | –
CC1CCc2cc(F)ccc2N1C(=O)CSc1nnc2c(n1)[nH]c1ccc(F)cc12 (stereo not drawn) [MLS000556689-01] | 8.41 | –
O=C1CC(c2ccccc2)N(Cc2ccncc2)CCCN([S+](=O)([O-])c2cccs2)CCN1 (stereo not drawn) [NCGC00467201-01] | 6.68 | –
CCOc1cc(CNCC(O)c2ccccc2)cc(Cl)c1OC (stereo not drawn) [MLS000676147-01] | 3.35 | –
Cn1c(SCC(=O)N2c3ccccc3CCc3ccccc32)nnc1-c1cc2ccccc2cc1O [MLS000553503-01] | 8.41 | –
CC1CCN(c2nc3c([S+](=O)([O-])c4ccccc4)nnn3c3ccc(Cl)cc23)CC1 [NCGC00112222-01] | 2.66 | –
CC1(c2ccccc2)N(Cc2cccnc2)C(=O)OC12CCN(Cc1ccccc1)CC2 (stereo not drawn) [NCGC00415633-01] | 17.2 | –
COc1ccc(CCC(=O)N2Cc3ccccc3OC3(CCN(C)CC3)C2)cc1 [NCGC00456460-01] | 7.5 | –

Compound | AC50 (read-out: AC50) [µM] | AC50 [µM]
CN(C)c1ccc(CN2CCC3(CC2)COc2ccccc2C(=O)N3)cc1 [NCGC00477464-01] | 2.66 | –
CCOc1ccc(NC(=O)c2nnn3cc(C)[nH]c(=O)c23)cc1 [NCGC00454245-01] | 10.6 | –
COc1ccccc1CNC(=O)[C@@H](C)C1CC[C@@]2(C)CC[C@H](NC(=O)c3cncnc3)[C@@H](C)[C@@H]2[C@H]1O (stereo partly drawn) [NCGC00395379-01] | 2.37 | –
COC(=O)[C@@H]1Cc2ncn(Cc3ccc(OC)cc3)c2CN1[S+](=O)([O-])Cc1ccccc1 [NCGC00401681-01] | 15 | –
COc1cc(C)ccc1OCCSc1nc2ccc(NC(=O)c3ccc(F)cc3)cc2s1 [NCGC00118562-01] | 10.6 | –
COc1ccccc1-c1ccc2ncc(Nc3ccc4[nH]ccc4c3)n2n1 [NCGC00412550-01] | 4.33 | –
CCN(CC)C(=O)c1ccc(-c2nnc3ccc(NC(=O)C4CC4)cn23)cc1 [NCGC00429860-01] | 2.99 | –
O=C(Nc1cccnc1)c1cn(-c2ccccc2)nc1-c1cccs1 [MLS000081870-01] | 2.37 | –
O=C(NCCC1=CCCCC1)c1ccc2c(=O)n3nc(Nc4ccccc4)sc3nc2c1 [NCGC00138829-01] | 4.73 | –
c1cc(-c2noc([C@@H]3Cc4[nH]cnc4CN3CC3CCCCC3)n2)ccn1 [NCGC00394653-01] | 21.7 | –
Nc1ccc2oc(-c3ccc4[nH]cnc4c3)nc2c1 [MLS000121646-01] | 13.3 | –
CCCOc1cccc(C2c3c(oc4cc(C)c(C)cc4c3=O)C(=O)N2CCCN2CCOCC2)c1 (stereo not drawn) [NCGC00101917-01] | 13.3 | –
CN(C)C[C@@H]1CN(C)C[C@H]1N[S+](=O)([O-])c1ccc(Br)cc1 [NCGC00462726-01] | 13.3 | –
CCCc1c(C)[nH]c2ccccc2c1=O [MLS000067721-01] | 7.5 | –
CCCNCC(O)COc1ccccc1C(=O)CCc1ccccc1 (stereo not drawn) [NCGC00015819-06] | 0.841 | –
Cc1nc2sc(C(c3ccco3)N3CCN(C(c4ccccc4)c4ccccc4)CC3)c(O)n2n1 (stereo not drawn) [MLS000101802-01] | 5.96 | –
CCOc1ccc(CN2C(=O)c3ccccc3Sc3ccc(C(=O)N4CCN(C)CC4)cc32)cc1 [NCGC00108216-01] | 0.299 | –
COC1CN(c2ccc(C)cc2)C12CCN(C(=O)CCc1nc3ccccc3s1)CC2 (stereo not drawn) [NCGC00465628-01] | 10.6 | –
CC(C)N1CC=C(c2c[nH]c3ccccc23)CC1 [MLS000093714-01] | 10.6 | –
NC(=O)c1cccc2nc([C@H]3CCN(Cc4ccccn4)C3)[nH]c12 [NCGC00396190-01] | 1.53 | –
CC(C)CNC(=O)C(C)(C)Oc1nn(CC2CC2)c2ccc(CN3CCCC3)cc12 [NCGC00419534-01] | 19.3 | –

Compound | AC50 (read-out: AC50) [µM] | AC50 [µM]
Cc1c(CN2CCN(CC(C)(C)C)C(CCO)C2)[nH]c2ccccc12 (stereo not drawn) [MLS001000590-01] | 9.44 | –
COCCN1Cc2ccc(NCC(C)C)nc2C(C)(C(=O)Nc2ccncc2)C1 (stereo not drawn) [NCGC00414482-01] | 21.7 | –
CCc1c(C)[nH]c2ccccc2c1=O [MLS000030676-01] | 10.6 | –
C[N+](C)(C)CCN(Cc1ccc(Cl)cc1)c1ccccn1 [MLS000556881-01] | 9.44 | –
CCCc1nc2ccc(NC(=O)c3cccs3)cc2c(=O)n1Cc1ccc(Cl)cc1 [MLS000569177-01] | 8.41 | –
COc1cc(CN2CC(=O)N(c3ccc(C)c(C)c3)C2=S)cc(OC)c1OC [MLS000583901-01] | 15 | –
COc1cncc(Nc2cnc3ccc(-c4ccc(F)cc4)nn23)c1 [NCGC00412595-01] | 3.06 | –
CC1(c2ccccc2)CC(c2ccccc2)=Nc2nonc2N1 (stereo not drawn) [MLS000079110-01] | 5.31 | –
CC(C)c1cc(C(=O)Nc2cc(Cl)ccc2O)no1 [MLS000087324-01] | 6.68 | –
O=C(c1nnc(CN2CCC(F)(F)CC2)n1-c1cccnc1)N1CCC[C@@H]1C(c1ccccc1)c1ccccc1 [NCGC00415758-01] | 15 | –
COc1ccc(C)cc1NCc1cc(=O)oc2cc(-c3ccccc3)c(O)cc12 [MLS000331048-01] | 5.31 | –
CC(C)(C)Nc1nc(NC(C)(C)C)nc(-n2ccnc2)n1 [MLS000044025-01] | 4.73 | –
COCc1ccc2c(c1)c(OC(C)(C)C(=O)N1CCOCC1)nn2Cc1cccc(OC)c1 [NCGC00419580-01] | 8.41 | –
O=[S+]([O-])(c1cccnc1)N1CCC2(CC1)NCCc1c2[nH]c2ccccc12 [NCGC00460719-01] | 16.8 | –
N#Cc1nn(-c2c(Cl)cc(C(F)(F)F)cc2Cl)c(N)c1[S+]([O-])C(F)(F)F (stereo not drawn) [NCGC00094574-06] | 9.44 | –
COc1ccc(CN2C(=O)C(C)N(C(=O)c3c(F)cccc3F)c3ccccc32)cc1 (stereo not drawn) [MLS001166304-01] | 7.5 | –
O=c1nc(C2CCN(S(=O)(=O)c3ccc4c(c3)OCCO4)CC2)[nH]c2c1nnn2Cc1ccc(F)cc1 [MLS001216943-01] | 8.41 | –
COc1ccc(OCCn2cc(C(=O)c3ccco3)c3ccccc32)cc1 [NCGC00101886-01] | 2.11 | –
